Series [1] deals with Eschericha coli ATCC25922. Briefly: Temperature and pH stability (MIC after treatment). Type of series: cell-based. On the set-up: MIC value, Control (pH 7) / MIC value after 0 °C / MIC value after 37 °C / MIC value after 100 °C / MIC value after pH 4 / MIC value after pH 6 / MIC value after pH 8 / MIC value after pH 10: unit not given beside the values. The settings on record: for MIC value after pH 4: peptide exposed for one hour to pH 4; for MIC value after pH 4 / MIC value after pH 6 / MIC value after pH 8 / MIC value after pH 10 / MIC value after 37 °C / MIC value after 100 °C / MIC value after 0 °C / MIC value, Control (pH 7): triplicate; for MIC value after pH 6: peptide exposed for one hour to pH 6; for MIC value after pH 8: peptide exposed for one hour to pH 8; for MIC value after pH 10: peptide exposed for one hour to pH 10; for MIC value after 37 °C: peptide heated to 37 °C for 30 min before MIC; for MIC value after 100 °C: peptide heated to 100 °C for 30 min before MIC; for MIC value after 0 °C: peptide in ice-cold water at 0 °C for 30 min before MIC; for MIC value, Control (pH 7): untreated peptide, Table 2 control; for increase of MIC value at 100 °C: versus untreated control. The protocol: (§1) The strains kept at −80 °C were reactivated, plated, and incubated overnight at 37 °C. Single colonies were picked, inoculated into 5 mL of MH medium, and cultured until they reached OD600 = 0.5. The bacterial suspensions were then diluted to 1 × 10^5 CFU/mL, and 50 μL was added to wells 1–11. Then, 50 μL and 100 μL of deionized water were added to wells […], respectively, to provide a positive and a negative control. The concentration of peptide present in the first non-turbid well in which bacterial growth was inhibited was taken as the minimal inhibitory concentration (MIC). This experiment was repeated three times.
The efficacy of the chemically synthesized and in vivo-expressed LRGG peptide were tested for their efficacy against Eschericha coli ATCC 25922 under various conditions, such as heat and different pH conditions, before determining their MIC in triplicate. In one case, the peptides were placed in ice-cold water at 0 °C and heated to 37 °C and 100 °C for 30 min each, and their efficacy was compared to that of an untreated control group. This process was repeated three times. […] In another set of experiments, the peptides were mixed and incubated with 1 mg/mL of four different proteases. After inactivation of the enzymes, the peptides were tested for their efficacy against Eschericha coli ATCC 25922. The peptides were also tested after mixing with various salt solutions and concentrations of fetal bovine serum at concentrations ranging from 5% to 50%. In all cases, the MIC were determined in triplicate using untreated antimicrobial peptides as controls.

Series [2] has as its system Eschericha coli ATCC25922. Briefly: Protease stability (MIC after protease treatment). Type of series: cell-based. Further details: MIC value, Control: unit not given beside the values. Particulars: triplicate; for MIC value after Papain: peptide incubated with 1 mg/mL papain; for MIC value after Papain / MIC value after Pepsin / MIC value after Protease K / MIC value after Trypsin: enzyme inactivated before MIC; for MIC value after Pepsin: peptide incubated with 1 mg/mL pepsin; for MIC value after Protease K: peptide incubated with 1 mg/mL protease K; for MIC value after Trypsin: peptide incubated with 1 mg/mL trypsin; for MIC value, Control: untreated peptide, Table 3 control. The protocol:
as §1
(§2) The efficacy of the chemically synthesized and in vivo-expressed LRGG peptide were tested for their efficacy against Eschericha coli ATCC 25922 under various conditions, such as heat and different pH conditions, before determining their MIC in triplicate. In one case, the peptides were placed in ice-cold water at 0 °C and heated to 37 °C and 100 °C for 30 min each, and their efficacy was compared to that of an untreated control group. This process was repeated three times. In another case, the peptides were exposed for one hour to pH values of 4, 6, 8, and 10, and their activity was compared to that of an untreated control group. In another set of experiments, the peptides were mixed and incubated with 1 mg/mL of four different proteases. After inactivation of the enzymes, the peptides were tested for their efficacy against Eschericha coli ATCC 25922. The peptides were also tested after mixing with various salt solutions and concentrations of fetal bovine serum at concentrations ranging from 5% to 50%. In all cases, the MIC were determined in triplicate using untreated antimicrobial peptides as controls.

Series [3] has as its system Eschericha coli ATCC25922. Kind of series: Salt ion stability (MIC in salt solutions). Type of series: cell-based. Further details: unit not given here. The settings on record: triplicate; for MIC value with MgCl2: 1 mM MgCl2; for MIC value with CaCl2: 2.5 mM CaCl2; for MIC value with KCl: 4.5 mM KCl; for MIC value with NH4Cl: 6 mM NH4Cl; for MIC value with NaCl: 150 mM NaCl; for MIC value, Control: untreated peptide, Table 4 control. The protocol:
as §1, §2

In series [4] the test system is Eschericha coli ATCC25922. Briefly: Serum stability (MIC at different serum concentrations). Type of series: cell-based. Particulars: triplicate; for MIC value in 5% serum: fetal bovine serum 5%; for MIC value in 10% serum: fetal bovine serum 10%; for MIC value in 20% serum: fetal bovine serum 20%; for MIC value in 40% serum: fetal bovine serum 40%; for MIC value in 50% serum: fetal bovine serum 50%; for MIC value, Control: untreated peptide, Table 5 control. The protocol:
as §1, §2

For series [5], the system named is AB-strain zebrafish embryos. Kind of series: Embryotoxicity in zebrafish. It is filed as in vivo. Particulars: embryos at 28 °C for approximately 2–3 days, light microscope; for zebrafish morphology (embryotoxicity): 1 × MIC. The protocol:
A sodium dehydroacetate solution of 200 μg/mL served as the positive control, while the negative control group contained only culture medium. The embryos were cultured in a constant temperature incubator at 28 °C for approximately 2–3 days, and their morphology after fertilization was observed using a light microscope.

The next series concerns sheep red blood cells. It is filed as cell-based. The settings on record: red cells of sheep. As to the method:
To obtain a suspension containing 2% red blood cells, 15 mL of sheep blood was collected in a tube containing 0.2% sodium heparin anticoagulant and centrifuged at 1000 rpm for 10 min. After discarding the supernatant, the red blood cell pellet was collected, washed twice with sterile phosphate buffered saline (PBS), and resuspended in PBS. […] After the erythrocyte suspension was incubated with the antimicrobial peptide LRGG for one hour at 37 °C, the mixture from each well of the 96-well plate was aspirated and centrifuged at 1000× g for 10 min. The absorbance of the supernatant was then measured at 570 nm, with three repeats and averaging. Finally, the hemolytic index was calculated as follows: Hemolytic index (%) = (O.D. peptide − O.D. PBS)/(O.D. TritonX − 100 − O.D. PBS) × 100%.

Series [6] relates to Eschericha coli ATCC25922. Briefly: Plasma membrane potential (diSC3-5). The settings on record: 1–8 MIC, 0–1500 s, diSC3-5 0.4 μM. Type of series: cell-based. The protocol:
To determine whether the expressed antimicrobial peptide LRGG can break bacterial cytoplasmic membranes, diSC3-5 was used as a fluorescent dye to monitor changes in membrane potential. A bacterial suspension was prepared and adjusted to an ABS O.D. of 600 = 0.5. Next, the same volume of bacterial suspension and varying concentrations of expressed antimicrobial peptide LRGG (1–8 MIC) were added to black 96-well plates. A control group was established using PBS, and diSC3-5 dye was added to a final concentration of 0.4 μM and incubated at room temperature in the dark for one hour. Changes in […] between 0 and 1500 s were measured using a fluorescence microplate reader at excitation (622 nm) and emission (670 nm) wavelengths.

This note sets out measurements from publication PMC11241267, “Prokaryotic Expression and Functional Verification of Antimicrobial Peptide LRGG” (International Journal of Molecular Sciences, 2024).

Where no end group is shown, it is not given here. A value given as a limit tells only on which side of the number the result lay.

Take “H-LLRLLRRGGRRLLRLL-NH2 [Chem. Syn. LRGG]”: in series [1], the “MIC value after pH 4” value is on record as 2, the “MIC value after pH 6” value is given as 2, the “MIC value after pH 8” value came to 4 and the “MIC value after pH 10” value amounted to 4. In addition, in series [1], the “MIC value after 37 °C” value was 2; the “MIC value after 100 °C” value is listed as 8; the “MIC value after 0 °C” value came out at 2; the “MIC value, Control (pH 7)” value stood at 2. The “increase of MIC value at 100 °C” value in series [1] is “four-fold”. Moreover, in series [2], the “MIC value after Papain” value is reported as greater than 64, the “MIC value after Pepsin” value is given as greater than 128, the “MIC value after Protease K” value is reported as greater than 64 and the “MIC value after Trypsin” value was greater than 128. Further, in series [2], the “MIC value, Control” value is 2. For the same compound, in series [3], the “MIC value with MgCl2” value is reported as 4, the “MIC value with CaCl2” value was found to be 4, the “MIC value with KCl” value is on record as 2 and the “MIC value with NH4Cl” value came to 2. For the same compound, in series [3], the “MIC value with NaCl” value amounted to 8 and the “MIC value, Control” value is 2. In series [4], the “MIC value in 5% serum” value is given as 2, the “MIC value in 10% serum” value worked out at 2, the “MIC value in 20% serum” value worked out at 8 and the “MIC value in 40% serum” value came out at 16. In series [4], the “MIC value in 50% serum” value came out at 16 and the “MIC value, Control” value is listed as 2. Besides, the “zebrafish morphology (embryotoxicity)” value in series [5] is on record as “did not change the morphology of the zebrafish”.

Regarding `CC(=O)c1c([O-])cc(C)oc1=O.[Na+]` [sodium dehydroacetate, reference compound], the “zebrafish morphology (embryotoxicity), positive control” value in series [5] (200 μg/mL) was “significant hemorrhage and severe bending of the fish”.

On to GLLRLLRRGGRRLLRLL [Expressed LRGG], for which, in series [1], the “MIC value after pH 4” value worked out at 2, the “MIC value after pH 6” value worked out at 4, the “MIC value after pH 8” value stood at 2 and the “MIC value after pH 10” value was determined as 16. In series [1], the “MIC value after 37 °C” value was 4; the “MIC value after 100 °C” value was 8; the “MIC value after 0 °C” value amounted to 2; the “MIC value, Control (pH 7)” value was determined as 2. Also, the “increase of MIC value at 100 °C” value in series [1] is reported as “four-fold”. Moreover, in series [2], the “MIC value after Papain” value is greater than 64, the “MIC value after Pepsin” value was greater than 128, the “MIC value after Protease K” value is recorded as greater than 64 and the “MIC value after Trypsin” value was greater than 128. For the same compound, the “MIC value, Control” value in series [2] is on record as 4. In series [3], the “MIC value with MgCl2” value is 8, the “MIC value with CaCl2” value is given as 4, the “MIC value with KCl” value was 8 and the “MIC value with NH4Cl” value was found to be 4. In series [3], the “MIC value with NaCl” value was 8 and the “MIC value, Control” value was determined as 4. Moreover, in series [4], the “MIC value in 5% serum” value came to 2, the “MIC value in 10% serum” value is recorded as 4, the “MIC value in 20% serum” value is 32 and the “MIC value in 40% serum” value is given as 32. In addition, in series [4], the “MIC value in 50% serum” value worked out at 32 and the “MIC value, Control” value was 2. The hemolytic index result with sheep red blood cells is given as “less than 10%”. Further, the “zebrafish morphology (embryotoxicity)” value in series [5] was “did not change the morphology of the zebrafish”. In series [6], the “diSC3-5 fluorescence value (cytoplasmic membrane potential)” value is recorded as “gradually increased”.
